Reference: publication PMC6028563, “Probing Substituents in the 1- and 3-Position: Tetrahydropyrazino-Annelated Water-Soluble Xanthine Derivatives as Multi-Target Drugs With Potent Adenosine Receptor Antagonistic Activity” (Frontiers in Chemistry, 2018)
Like-named read-outs stand apart in the source and are kept apart here.

How the values were obtained:
[1] = target: T1, recombinant human MAO-B (Homo sapiens, UniProt P27338); test: Monoamine oxidase assay (Amplex Red), MAO-B; format: biochemical; conditions: for inhibition at 10 µM: at 10,000 nM (10 μM), read-out: % inhibition at indicated concentration, Human MAO-B; for IC50: n = 3, read-out: IC50 ± SEM, Human MAO-B
T1 construct: purchased Sigma-Aldrich M7441; host or cells: baculovirus-infected insect cells
T1 sequence (P27338 1-520): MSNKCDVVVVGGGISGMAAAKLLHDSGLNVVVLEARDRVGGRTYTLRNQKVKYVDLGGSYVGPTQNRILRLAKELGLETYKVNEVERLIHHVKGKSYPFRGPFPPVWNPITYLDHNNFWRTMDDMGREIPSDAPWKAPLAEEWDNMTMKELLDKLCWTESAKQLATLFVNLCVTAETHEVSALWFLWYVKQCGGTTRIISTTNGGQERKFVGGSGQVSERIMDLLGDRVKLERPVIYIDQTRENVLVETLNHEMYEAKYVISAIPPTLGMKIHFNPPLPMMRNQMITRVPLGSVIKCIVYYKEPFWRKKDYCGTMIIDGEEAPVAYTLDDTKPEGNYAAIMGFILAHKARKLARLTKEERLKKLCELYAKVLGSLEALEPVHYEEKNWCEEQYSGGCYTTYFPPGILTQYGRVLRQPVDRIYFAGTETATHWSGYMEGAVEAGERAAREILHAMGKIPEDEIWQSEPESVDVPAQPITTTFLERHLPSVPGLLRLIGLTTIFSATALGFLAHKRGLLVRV
Procedure, shortened: (§1)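 Recombinant human MAO-A and MAO-B, expressed in baculovirus-infected insect cells, were assayed by Amplex Red fluorometric detection. Rat MAO-B inhibition used mitochondria-enriched fractions from male Sprague Dawley rat liver.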

[2] = system: passive avoidance test; set-up: method as in Mihara et al., 2007; conditions: rats; ref Mihara et al., 2007; cited from earlier work
[3] = target: T1, recombinant human MAO-B; conditions: human (h); Figure 1; ref Petzer et al., 2009; Müller and Jacobson, 2011; Brunschweiger et al., 2014; cited from earlier work
[4] = target: T2, recombinant human MAO-A (Homo sapiens, UniProt P21397); conditions: human (h); Figure 1; ref Petzer et al., 2009; Müller and Jacobson, 2011; Brunschweiger et al., 2014; cited from earlier work
T2 construct: purchased Sigma-Aldrich M7316; host or cells: baculovirus-infected insect cells
T2 sequence (P21397 1-527): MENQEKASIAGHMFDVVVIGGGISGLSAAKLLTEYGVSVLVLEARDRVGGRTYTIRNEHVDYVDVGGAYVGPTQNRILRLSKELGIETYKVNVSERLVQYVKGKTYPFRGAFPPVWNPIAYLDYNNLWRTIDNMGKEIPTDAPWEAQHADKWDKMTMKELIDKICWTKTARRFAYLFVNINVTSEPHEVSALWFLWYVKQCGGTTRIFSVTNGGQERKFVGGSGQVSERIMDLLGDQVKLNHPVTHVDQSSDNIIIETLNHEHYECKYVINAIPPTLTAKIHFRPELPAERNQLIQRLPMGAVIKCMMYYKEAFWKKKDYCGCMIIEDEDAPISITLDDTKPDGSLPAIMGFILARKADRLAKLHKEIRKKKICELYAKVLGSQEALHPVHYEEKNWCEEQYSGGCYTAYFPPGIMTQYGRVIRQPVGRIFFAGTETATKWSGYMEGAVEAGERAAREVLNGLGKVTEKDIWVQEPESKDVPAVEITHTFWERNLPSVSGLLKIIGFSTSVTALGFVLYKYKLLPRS

[5] = target: T2, recombinant human MAO-A; test: Monoamine oxidase assay (Amplex Red), MAO-A; format: biochemical; conditions: for inhibition at 10 µM: at 10,000 nM, read-out: % inhibition at indicated concentration, Human MAO-A; for IC50: n = 3, read-out: IC50 ± SEM, Human MAO-A
Procedure, shortened: as §1

[6] = system: ARs; test: Radioligand binding assays at adenosine receptors (statements on ARs in general)
Experimental: Membrane preparations and radioligand binding assays at rat A1 (rat brain cortex) and rat A2A ARs (rat brain striatum) were performed as previously described (Ozola et al., [2003]; Alnouri et al., [2015]). For assays at human A1, A2A, A2B, and A3 ARs, CHO cell membranes expressing one of the human AR subtypes were used as previously reported (Klotz et al., [1998]; Alnouri et al., [2015]; De Filippo et al., [2016]).
The synthesized tetrahydropyrazino[2,1-f ]purinediones 13–20 were evaluated in radioligand binding assays for their affinity to A1 ARs of rat brain cortical membrane and to A2A ARs of rat brain striatal membrane preparations. Selected compounds were further investigated for their affinity to human A1 and A2A ARs recombinantly expressed in Chinese hamster ovary (CHO) cells. All compounds were additionally investigated for their affinity to human A2B and A3 ARs recombinantly expressed in CHO cells to determine their AR subtype selectivity. […] It is well known that all xanthine derivatives lacking a ribose moiety, including tricyclic compounds, can only block ARs, but never act as AR agonists; therefore, additional functional studies were not required. […] Potent MAO-B inhibitors were additionally investigated for inhibition of human MAO-A to assess their selectivity. Results are presented in Tables 1–6, and data of standard ligands are included for comparison.

[7] = target: T3, human A3 AR (Homo sapiens, UniProt P0DMS8); test: Radioligand binding assay at human A3 AR vs. [^3H]PSB-11
T3 construct: expressed in transfected cells; host or cells: CHO cells
T3 sequence (P0DMS8 1-318): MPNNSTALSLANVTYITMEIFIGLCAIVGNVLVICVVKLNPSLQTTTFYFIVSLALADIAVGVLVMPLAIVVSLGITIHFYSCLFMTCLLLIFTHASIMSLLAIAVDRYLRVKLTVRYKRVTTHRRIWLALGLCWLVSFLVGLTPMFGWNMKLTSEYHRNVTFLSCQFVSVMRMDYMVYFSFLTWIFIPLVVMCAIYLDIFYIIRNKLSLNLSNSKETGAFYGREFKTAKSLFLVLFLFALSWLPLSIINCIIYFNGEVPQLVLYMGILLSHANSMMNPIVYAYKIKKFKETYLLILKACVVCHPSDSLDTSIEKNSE
Procedure, shortened: (§2)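 Using CHO membranes with one recombinant human AR subtype each (A1, A2A, A2B, A3), plus rat cortical (A1) and striatal (A2A) membranes, compounds are tested in radioligand binding to give receptor affinity and subtype selectivity.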

[8] = target: T4, human A2B AR (Homo sapiens, UniProt P29275); test: Radioligand binding assay at human A2B AR vs. [^3H]PSB-603
T4 construct: expressed in transfected cells; host or cells: CHO cells
T4 sequence (P29275 1-332): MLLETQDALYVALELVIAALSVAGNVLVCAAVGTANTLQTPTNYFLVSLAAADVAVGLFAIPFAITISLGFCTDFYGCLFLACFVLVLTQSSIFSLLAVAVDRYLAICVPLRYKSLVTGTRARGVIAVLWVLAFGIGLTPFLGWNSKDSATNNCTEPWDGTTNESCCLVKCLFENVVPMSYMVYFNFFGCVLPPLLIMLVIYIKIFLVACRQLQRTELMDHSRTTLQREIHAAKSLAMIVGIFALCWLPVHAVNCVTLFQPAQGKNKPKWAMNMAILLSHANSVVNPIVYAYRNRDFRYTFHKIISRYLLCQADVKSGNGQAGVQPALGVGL
Procedure, shortened: as §2

[9] = target: T5, rat A1 AR (Rattus norvegicus, UniProt P25099); test: Radioligand binding assay at rat A1 AR (rat brain cortex) vs. [^3H]CCPA; conditions: rat (r)
T5 construct: A1 ARs of rat brain cortical membrane; from tissue; host or cells: rat brain cortex membranes
T5 sequence (P25099 1-326): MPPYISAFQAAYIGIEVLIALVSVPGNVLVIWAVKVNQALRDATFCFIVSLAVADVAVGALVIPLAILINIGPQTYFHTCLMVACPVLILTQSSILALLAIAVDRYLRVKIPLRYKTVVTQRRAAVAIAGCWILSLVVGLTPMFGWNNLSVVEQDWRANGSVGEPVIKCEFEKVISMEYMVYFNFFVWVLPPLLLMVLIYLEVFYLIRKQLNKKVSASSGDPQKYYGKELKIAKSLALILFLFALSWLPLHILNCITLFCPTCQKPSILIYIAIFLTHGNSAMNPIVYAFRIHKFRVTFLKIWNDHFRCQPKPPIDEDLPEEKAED
Procedure, shortened: as §2

[10] = target: T6, rat A2A AR (Rattus norvegicus, UniProt P30543); test: Radioligand binding assay at rat A2A AR (rat brain striatum) vs. [^3H]MSX-2; conditions: rat (r)
T6 construct: A2A ARs of rat brain striatal membrane preparations; from tissue; host or cells: rat brain striatum membranes
Procedure, shortened: as §2

[11] = target: T3, human A3 AR; conditions: human (h); Figure 2; ref Chen et al., 2002; Stössel et al., 2013; Mihara et al., 2007; read-out: A3 (Ki); cited from earlier work
[12] = system: haloperidol-induced catalepsy; set-up: method as in Mihara et al., 2007; conditions: monkeys; ref Mihara et al., 2007; cited from earlier work

T6 sequence (P30543 whole entry): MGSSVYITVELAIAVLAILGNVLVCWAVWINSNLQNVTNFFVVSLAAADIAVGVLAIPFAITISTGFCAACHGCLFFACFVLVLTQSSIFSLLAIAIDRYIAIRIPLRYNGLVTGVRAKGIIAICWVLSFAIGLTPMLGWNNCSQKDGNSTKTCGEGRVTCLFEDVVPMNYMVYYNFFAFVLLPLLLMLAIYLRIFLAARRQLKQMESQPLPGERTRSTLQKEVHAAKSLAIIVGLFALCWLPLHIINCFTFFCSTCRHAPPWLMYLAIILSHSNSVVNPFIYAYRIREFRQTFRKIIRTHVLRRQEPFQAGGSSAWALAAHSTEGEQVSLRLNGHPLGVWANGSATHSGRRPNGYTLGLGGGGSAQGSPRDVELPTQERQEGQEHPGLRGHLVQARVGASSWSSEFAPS

inhibition at 10 µM [1] [%] | IC50 [1] [µM] | inhibition at 10 µM [5] [%] | IC50 [5] [µM] | affinity for ARs (in words) [6] | Ki ([7]; CHO cell membranes, n = 2 (n = 3 where marked a), read-out: Ki ± SEM, A3 vs. [^3H]PSB-11) [µM] | inhibition at 10 µM ([7]; at 10,000 nM, read-out: % inhibition of radioligand binding at indicated concentration, A3 vs. [^3H]PSB-11) [%] | Ki ([8]; CHO cell membranes, n = 2 (n = 3 where marked a), read-out: Ki ± SEM, A2B vs. [^3H]PSB-603) [µM] | inhibition at 1 µM ([8]; at 1,000 nM, read-out: % inhibition of radioligand binding at indicated concentration, A2B vs. [^3H]PSB-603) [%] | Ki ([9]; rat brain cortex, n = 3) [µM] | inhibition at 1.5 µM ([9]; read-out: % inhibition of radioligand binding at indicated concentration, A1 vs. [^3H]CCPA, at 1,500 nM) [%] | % inhibition of radioligand binding at indicated concentration, A2A vs. [^3H]MSX-2 ([10]; at 1,000 nM) [%] | Ki ([10]; rat brain striatum, n = 3, read-out: Ki ± SEM, A2A vs. [^3H]MSX-2) [µM] | Structure (SMILES) | result in the passive avoidance test [2] | IC50 [3] [µM] | IC50 [4] [µM] | Ki [11] [µM] | effect on haloperidol-induced catalepsy [12]
20 | > 10 | 18 | > 10 | – | – | – | – | – | – | – | – | – | CCn1c(=O)c2c(nc(/C=C/c3ccc(OC)c(OC)c3)n2C)n(CC)c1=O [Istradefylline, istradefylline, reference compound] | inactive | > 10 | > 10 | – | –
56 | < 10 | 8 | > 10 | nearly inactive | > 10 | 32 | > 1 | 2 | > 1.5 | 31 | 39 | > 1 | CCn1c(=O)c2c(nc3n2CCN(Cc2cc(C(F)(F)F)cc(C(F)(F)F)c2)C3)n(C)c1=O [Compound 14q, 8-(3,5-bis(trifluoromethyl)benzyl)-3-ethyl-1-methyl-6,7,8,9-tetrahydropyrazino[2,1-f]purine-2,4(1H,3H)-dione] | – | – | – | – | –
– | – | – | – | – | – | – | – | – | – | – | – | – | CC(C)n1cc(-c2ncc(N)nc2-c2ccc(F)cc2)ccc1=O [ASP-5854, 5-[5-amino-3-(4-fluorophenyl)pyrazin-2-yl]-1-isopropylpyridine-2(1H)-one] | positive results | – | – | > 0.557 | reversed
